According to patent US20040127547A1, “Prodigiosin composition for the treatment of rheumatic arthritis” (priority 2001, published 2004):

Tests used:
T-cell = details: cited from earlier work
[1] = tested on: cytokines TNF-α, IL-1β, IL-6, IL-12, IL-2, IFN-γ, IL4, IL-10; assay: Cytokine expression levels in spleen cells by RT-PCR; type: in vivo; details: spleen cells of treated DBA/1 mouse, 10 mg/kg i.p. every other day
Procedure: The spleen cells were removed from DBA/1 mouse of the prodigiosin-treated group and the control group, not treated with prodigiosin, in Example 3 and subjected to RNA separation. Then, the expression levels of cytokine were measured using RT-PCR (Reverse transcriptase polymerase chain reaction). The expression levels of inflammatory cytokines such as TNF-α, IL-1β, IL-6, IL-12; cytokines derived from Th1 cells such as IL-2, IFN-γ; cytokines derived from Th2 cells such as IL4, IL-10 were measured.

NOD mouse = details: cited from earlier work
[2] = tested on: DBA/1 mouse with collagen-induced rheumatic arthritis; assay: Crisis level (clinical index) of collagen-induced rheumatic arthritis; type: in vivo
Procedure: 6 week-old male DBA/1 mouse supplied from Charles River Japan (Japan) was adapted until 8 to 12 week-old and then, used in the experiment. On the first day of the experiment, the mouse was administered subcutaneously with 100 μl of collagen/complete freund's adjuvant at its tail. The collagen/complete freund's adjuvant was prepared by mixing a solution of collagen (bovine type II) dissolved in 0.05 M acetic acid at a concentration of 2 mg/ml with complete freund's adjuvant at the same concentration. At 21st day of the experiment, 100 μg of collagen was intraperitoneally administered and at 28th day of the experiment, 40 μg of lipopolysaccharide was intraperitoneally administered to promote arthritis crisis. The crisis level of rheumatic arthritis was examined with the naked eye and expressed as a clinical index. That is, 0=none, 0.5=flushed and swollen toe, 1=mild crisis, 1.5=moderate crisis, 2 or more=severe crisis and joint stiffness. Four legs of the DBA/1 mouse were examined for their levels of arthritis crisis.
In order to confirm the therapeutic effect of prodigiosin on rheumatic arthritis, three types of experiments were performed according to the following strategies: (1) 10 mg/kg of prodigiosin was intraperitoneally administered every other day from the 29th day of the experiment, when rheumatic arthritis lesion was developed, to 65th day, the last day of the experiment; (2) 10 mg/kg of prodigiosin was intraperitoneally administered every other day from the 29th day of the experiment, when rheumatic arthritis lesion was developed, to 36th day of the experiment; and (3) 10 mg/kg of prodigiosin was intraperitoneally administered every other day from the 36th day of the experiment, when rheumatic arthritis was in progress, to 65th day, the last day of the experiment.
(§1) In this example, the DBA/1 mouse with collagen-induced rheumatic arthritis, prepared in Example 1, were administered intraperitoneally with 10 mg/kg of prodigiosin every other day from the 29th day of the experiment to 65th day of the experiment. The DBA/11 mouse treated with prodigiosin according to the above method and the DBA/1 mouse non-treated with prodigiosin were examined for their crisis level of rheumatic arthritis according to time.
as §1, with “order to investigate the change after suspension of administration of prodigiosin and the influence of prodigiosin on early rheumatic arthritis,” for “this example,”, “36th” for “65th”, “DBA/1” for “DBA/11”, “time. […] Accordingly, it is noted that prodigiosin has effects preventing and treating rheumatic arthritis.” for “time.”
In order to investigate the influence of prodigiosin on rheumatic arthritis which had developed and progressed, the DBA/1 mouse with collagen-induced rheumatic arthritis, prepared in Example 1, were administered intraperitoneally with 10 mg/kg of prodigiosin every other day from the 36th day to 65th day after starting the experiment. The DBA/1 mouse treated with prodigiosin according to the above method and the DBA/1 mouse non-treated with prodigiosin were examined for their crisis level of rheumatic arthritis according to time.

[3] = tested on: DBA/1 mouse with collagen-induced rheumatic arthritis; assay: Laboratory test: hematoxylin and eosin staining of interphalangeal and knee joints; type: in vivo; details: H&E staining
Source text: The ininter phalangeal joints and knee joints from DBA/1 mouse of the prodigiosin-treated group and the control group, not treated with prodigiosin, in Example 3 were subjected to a laboratory test. The ininter phalangeal joints and knee joints were removed on the last day of the administration and stained with hematoxylin and eosin.

animal = details: 10 to 30 mg/kg for 16 weeks; cited from earlier work
[4] = tested on: transplantation rejection; details: in vivo; cited from earlier work
B-cell = details: cited from earlier work

SMILES: CCCCCC1=C/C(=C/c2[nH]c(-c3ccc[nH]3)cc2OC)N=C1C [prodigiosin]
- proliferation and activity of T-cell (T-cell): strongly inhibit
- toxicity at a concentration where immunosuppression occurs (T-cell; concentration where immunosuppression occurs): not showing toxicity
- expression levels of cytokines (TNF-α, IL-1β, IL-6, IL-12, IL-2, IFN-γ, IL4, IL-10) [1]: reduced the expression levels of all kinds of cytokines
- diabetes crisis of the NOD mouse (NOD mouse; 10 mg/kg intraperitoneally every other day): completely suppressed
- insulitis (lymphocyte infiltration into pancreatic islet) (NOD mouse; NOD mouse): suppressed insulitis
- crisis level of rheumatic arthritis after suspension of administration ([2]; 10 mg/kg i.p. every other day from 29th to 36th day, after suspension of administration): about 1
- crisis level of rheumatic arthritis by the 38th day ([2]; 10 mg/kg i.p. every other day from 29th to 36th day, by the 38th day): ≤ 0.5
- crisis level of rheumatic arthritis ([2]; 10 mg/kg i.p. every other day from 29th to 65th day, clinical index 0 to 8 (four legs)): ≤ 0.5
- crisis level of rheumatic arthritis at 36 day ([2]; 10 mg/kg i.p. every other day from 36th to 65th day, at 36 day (start of administration)): about 2
- change of crisis level after 36 day ([2]; 10 mg/kg i.p. every other day from 36th to 65th day, progressive arthritis): no more increase
- histology of interphalangeal joint and knee joint ([3]; groups of Example 3 (10 mg/kg i.p., 29th to 36th day)): Normal tissues
- joint destruction in the knee joint ([3]; groups of Example 3): not observed
- lymphocyte infiltration into the interphalangeal joint ([3]; groups of Example 3): not observed
- toxicity in animal (animal): does not show toxicity
- effect on transplantation rejection [4]: therapeutic effects
- antibody production and proliferation of B-cell (B-cell): does not inhibit
